Source: US20140155389A1, “BICYCLIC INHIBITORS OF ALK” (ABBVIE INC., priority 2011, published 2014)

Target: T1, ALK (Homo sapiens, UniProt Q9UM73)
T1 construct: purchased Millipore
Assay: ALK kinase assay (HTRF)
Format: biochemical
Details: apparent Ki from IC50 by Cheng-Prusoff; ALK (Millipore) 3 nM or 4 nM, 50 μM ATP, 1 h at room temperature; read-out: HTRF_ALK Human - Ki

T1 sequence (Q9UM73 19-1620): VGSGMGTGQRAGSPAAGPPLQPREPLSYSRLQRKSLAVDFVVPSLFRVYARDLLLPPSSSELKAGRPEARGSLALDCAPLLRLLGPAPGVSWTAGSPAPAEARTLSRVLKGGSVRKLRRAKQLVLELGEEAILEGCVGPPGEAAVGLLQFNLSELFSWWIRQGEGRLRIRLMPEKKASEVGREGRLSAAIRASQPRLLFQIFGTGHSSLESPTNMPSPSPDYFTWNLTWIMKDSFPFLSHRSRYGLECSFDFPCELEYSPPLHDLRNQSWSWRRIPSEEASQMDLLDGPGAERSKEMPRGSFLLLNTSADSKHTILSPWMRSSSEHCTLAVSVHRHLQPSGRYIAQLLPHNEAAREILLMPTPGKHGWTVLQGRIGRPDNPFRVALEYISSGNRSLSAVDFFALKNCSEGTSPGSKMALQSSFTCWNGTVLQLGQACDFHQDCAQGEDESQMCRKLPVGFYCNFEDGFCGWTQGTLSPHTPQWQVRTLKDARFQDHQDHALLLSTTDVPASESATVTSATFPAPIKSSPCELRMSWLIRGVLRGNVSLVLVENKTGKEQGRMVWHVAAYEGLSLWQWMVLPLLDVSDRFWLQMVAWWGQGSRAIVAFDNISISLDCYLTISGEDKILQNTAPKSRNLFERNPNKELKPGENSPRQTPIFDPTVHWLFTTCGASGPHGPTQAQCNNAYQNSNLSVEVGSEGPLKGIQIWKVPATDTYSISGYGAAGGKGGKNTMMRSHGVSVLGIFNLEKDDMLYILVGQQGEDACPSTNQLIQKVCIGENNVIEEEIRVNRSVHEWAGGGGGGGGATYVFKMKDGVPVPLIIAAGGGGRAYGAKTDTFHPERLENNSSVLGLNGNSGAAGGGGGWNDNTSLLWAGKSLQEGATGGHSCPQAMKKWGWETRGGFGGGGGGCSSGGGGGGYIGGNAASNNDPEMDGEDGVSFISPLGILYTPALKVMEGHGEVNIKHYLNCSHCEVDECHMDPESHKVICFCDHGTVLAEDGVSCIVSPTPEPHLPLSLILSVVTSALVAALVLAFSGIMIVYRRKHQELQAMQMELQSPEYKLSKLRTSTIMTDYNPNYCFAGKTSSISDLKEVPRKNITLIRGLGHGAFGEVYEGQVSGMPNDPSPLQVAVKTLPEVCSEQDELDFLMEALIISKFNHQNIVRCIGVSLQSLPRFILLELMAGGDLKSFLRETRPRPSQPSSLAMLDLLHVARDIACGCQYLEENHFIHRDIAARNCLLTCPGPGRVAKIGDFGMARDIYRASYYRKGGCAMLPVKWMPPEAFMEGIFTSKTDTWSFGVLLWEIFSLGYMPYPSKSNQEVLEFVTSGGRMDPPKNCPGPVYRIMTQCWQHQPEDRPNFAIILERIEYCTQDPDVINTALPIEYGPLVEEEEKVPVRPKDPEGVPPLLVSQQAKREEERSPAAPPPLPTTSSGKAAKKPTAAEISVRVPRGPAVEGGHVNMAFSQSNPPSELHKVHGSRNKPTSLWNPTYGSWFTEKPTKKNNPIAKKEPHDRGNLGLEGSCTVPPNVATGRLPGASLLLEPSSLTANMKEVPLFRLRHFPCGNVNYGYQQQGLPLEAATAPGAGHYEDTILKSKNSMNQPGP

SMILES	Ki
O=C1NCCNc2nc(Cc3c(Cl)cccc3Cl)cc(Nc3ccc(N4CCNCC4)cc3)c21 [Example 4, 8-(2,6-dichlorobenzyl)-6-{[4-(piperazin-1-yl)phenyl]amino}-1,2,3,4-tetrahydro-5H-pyrido[2,3-e][1,4]diazepin-5-one]	940 nM
COc1cc(N2CCNCC2)ccc1Nc1nc(Nc2ccc(F)c(F)c2F)cc2cn[nH]c(=O)c12 [Example 53, 5-{[2-methoxy-4-(piperazin-1-yl)phenyl]amino}-7-[(2,3,4-trifluorophenyl)amino]pyrido[3,4-d]pyridazin-4(3H)-one]	4 nM
O=C1NCCNc2cc(Cc3c(Cl)cccc3Cl)nc(Nc3ccc(N4CCNCC4)cc3)c21 [Example 6, 8-(2,6-dichlorobenzyl)-6-{[4-(piperazin-1-yl)phenyl]amino}-1,2,3,4-tetrahydro-5H-pyrido[4,3-e][1,4]diazepin-5-one]	602 nM
O=c1[nH]ncc2cc(Cc3c(Cl)cccc3Cl)nc(Nc3ccc(N4CCNCC4)c(Cl)c3)c12 [Example 13, 5-{[3-chloro-4-(piperazin-1-yl)phenyl]amino}-7-(2,6-dichlorobenzyl)pyrido[3,4-d]pyridazin-4(3H)-one]	1 nM
COc1cc(N2CCNCC2)ccc1Nc1nc(Nc2c(C)cccc2C)cc2cn[nH]c(=O)c12 [Example 49, 7-[(2,6-dimethylphenyl)amino]-5-{[2-methoxy-4-(piperazin-1-yl)phenyl]amino}pyrido[3,4-d]pyridazin-4(3H)-one]	1 nM
COc1cc(N2CCNCC2)ccc1Nc1nc(Nc2ncccc2Cl)cc2cn[nH]c(=O)c12 [Example 50, 7-[(3-chloropyridin-2-yl)amino]-5-{[2-methoxy-4-(piperazin-1-yl)phenyl]amino}pyrido[3,4-d]pyridazin-4(3H)-one]	9 nM
COc1cc(N2CCNCC2)ccc1Nc1nc(Nc2ccccc2Cl)cc2cn[nH]c(=O)c12 [Example 24, 7-[(2-chlorophenyl)amino]-5-{[2-methoxy-4-(piperazin-1-yl)phenyl]amino}pyrido[3,4-d]pyridazin-4(3H)-one]	4 nM
COc1c(Nc2nc(Cc3c(Cl)cccc3Cl)cc3cnnc(O)c23)ccc(N2CCNCC2)c1F [Example 59, 7-(2,6-dichlorobenzyl)-5-{[3-fluoro-2-methoxy-4-(piperazin-1-yl)phenyl]amino}pyrido[3,4-d]pyridazin-4-ol]	4 nM
COc1cc(N2CCNCC2)ccc1Nc1nc(Nc2cccc(Cl)c2F)cc2cnnc(O)c12 [Example 54, 7-[(3-chloro-2-fluorophenyl)amino]-5-{[2-methoxy-4-(piperazin-1-yl)phenyl]amino}pyrido[3,4-d]pyridazin-4-ol]	4 nM
COc1cc(N2CCNCC2)ccc1Nc1nc(NC2CCCCC2)cc2cn[nH]c(=O)c12 [Example 46, 7-(cyclohexylamino)-5-{[2-methoxy-4-(piperazin-1-yl)phenyl]amino}pyrido[3,4-d]pyridazin-4(3H)-one]	3 nM
COc1cc(N2CCNCC2)ccc1Nc1nc(-c2ccccc2)cc2cn[nH]c(=O)c12 [Example 41, 5-{[2-methoxy-4-(piperazin-1-yl)phenyl]amino}-7-phenylpyrido[3,4-d]pyridazin-4(3H)-one]	28 nM
O=c1[nH]ncc2cc(Cc3c(Cl)cccc3Cl)nc(Nc3ccc(N4CCNCC4)cn3)c12 [Example 14, 7-(2,6-dichlorobenzyl)-5-{[5-(piperazin-1-yl)pyridin-2-yl]amino}pyrido[3,4-d]pyridazin-4(3H)-one]	13 nM
COc1cc(N2CCNCC2)ccc1Nc1nc(Nc2cccnc2)cc2cn[nH]c(=O)c12 [Example 44, 5-{[2-methoxy-4-(piperazin-1-yl)phenyl]amino}-7-(pyridin-3-ylamino)pyrido[3,4-d]pyridazin-4(3H)-one]	13 nM
COc1cc(N2CCN3CCCC3C2)ccc1Nc1nc(Cc2c(Cl)cccc2Cl)cc2cn[nH]c(=O)c12 (centres unmarked) [Example 66, 7-(2,6-dichlorobenzyl)-5-{[4-(hexahydropyrrolo[1,2-a]pyrazin-2(1H)-yl)-2-methoxyphenyl]amino}pyrido[3,4-d]pyridazin-4(3H)-one]	10 nM
COc1cc(N2CCNCC2)ccc1Nc1nc(NC2CCN(C)CC2)cc2cn[nH]c(=O)c12 [Example 58, 5-{[2-methoxy-4-(piperazin-1-yl)phenyl]amino}-7-[(1-methylpiperidin-4-yl)amino]pyrido[3,4-d]pyridazin-4(3H)-one]	4 nM
COc1cc(CCN2CCCC2)ccc1Nc1nc(Cc2c(Cl)cccc2Cl)cc2cn[nH]c(=O)c12 [Example 17, 7-(2,6-dichlorobenzyl)-5-({2-methoxy-4-[2-(pyrrolidin-1-yl)ethyl]phenyl}amino)pyrido[3,4-d]pyridazin-4(3H)-one]	6 nM
COCCNc1cc2cnnc(O)c2c(Nc2ccc(N3CCNCC3)cc2OC)n1 [Example 36, 7-[(2-methoxyethyl)amino]-5-{[2-methoxy-4-(piperazin-1-yl)phenyl]amino}pyrido[3,4-d]pyridazin-4-ol]	26 nM
O=c1[nH]ncc2cc(Cc3c(Cl)cccc3Cl)nc(Nc3c(F)cc(N4CCNCC4)cc3F)c12 [Example 42, 7-(2,6-dichlorobenzyl)-5-{[2,6-difluoro-4-(piperazin-1-yl)phenyl]amino}pyrido[3,4-d]pyridazin-4(3H)-one]	25 nM
COc1cc(N2CCNCC2)ccc1Nc1nc(Oc2ccccc2Cl)cc2cn[nH]c(=O)c12 [Example 62, 7-(2-chlorophenoxy)-5-{[2-methoxy-4-(piperazin-1-yl)phenyl]amino}pyrido[3,4-d]pyridazin-4(3H)-one]	2 nM

Next, values leading:

Ki	SMILES
74 nM	O=c1[nH]ncc2cc(N3CC(O)C3)nc(Nc3ccc(CN4CCCC4)cc3Cl)c12 [Example 97, 5-{[2-chloro-4-(pyrrolidin-1-ylmethyl)phenyl]amino}-7-(3-hydroxyazetidin-1-yl)pyrido[3,4-d]pyridazin-4(3H)-one]
4 nM	COc1cc(N2CCNCC2)ccc1Nc1nc(Oc2c(F)cccc2F)cc2cn[nH]c(=O)c12 [Example 75, 7-(2,6-difluorophenoxy)-5-{[2-methoxy-4-(piperazin-1-yl)phenyl]amino}pyrido[3,4-d]pyridazin-4(3H)-one]
51 nM	COc1cc(CN2CCOCC2)ccc1Nc1cc(Cc2ccccc2Cl)nc2cnnc(O)c12 [Example 94, 2-(2-chlorobenzyl)-4-{[2-methoxy-4-(morpholin-4-ylmethyl)phenyl]amino}pyrido[2,3-d]pyridazin-5-ol]
5 nM	COc1cc(N2CCNCC2)ccc1Nc1nc(Oc2ccc(Cl)cc2Cl)cc2cn[nH]c(=O)c12 [Example 85, 7-(2,4-dichlorophenoxy)-5-{[2-methoxy-4-(piperazin-1-yl)phenyl]amino}pyrido[3,4-d]pyridazin-4(3H)-one]
2 nM	COc1cc(N2CCNCC2)ccc1Nc1nc(Nc2ccc(F)c(Cl)c2Cl)cc2cnnc(O)c12 [Example 67, 7-[(2,3-dichloro-4-fluorophenyl)amino]-5-{[2-methoxy-4-(piperazin-1-yl)phenyl]amino}pyrido[3,4-d]pyridazin-4-ol]
6 nM	COc1cc(C2CCNCC2)ccc1Nc1cc(Cc2c(F)cccc2F)nc2cn[nH]c(=O)c12 [Example 109, 2-(2,6-difluorobenzyl)-4-{[2-methoxy-4-(piperidin-4-yl)phenyl]amino}pyrido[2,3-d]pyridazin-5(6H)-one]
15 nM	COc1cc(C2CCNCC2)ccc1Nc1cc(Cc2cccc(F)c2F)nc2cn[nH]c(=O)c12 [Example 111, 2-(2,3-difluorobenzyl)-4-{[2-methoxy-4-(piperidin-4-yl)phenyl]amino}pyrido[2,3-d]pyridazin-5(6H)-one]
4 nM	COc1cc(N2CCNCC2)ccc1Nc1nc(OC2CCCC2)cc2cnnc(O)c12 [Example 87, 7-(cyclopentyloxy)-5-{[2-methoxy-4-(piperazin-1-yl)phenyl]amino}pyrido[3,4-d]pyridazin-4-ol]
5 nM	COc1cc(N2CCNCC2)ccc1Nc1nc(Oc2ccc(Cl)c(Cl)c2Cl)cc2cnnc(O)c12 [Example 84, 5-{[2-methoxy-4-(piperazin-1-yl)phenyl]amino}-7-(2,3,4-trichlorophenoxy)pyrido[3,4-d]pyridazin-4-ol]
7 nM	Oc1nncc2cc(N3CCC(F)CC3)nc(Nc3ccc(CN4CCCC4)cc3Cl)c12 [Example 90, 5-{[2-chloro-4-(pyrrolidin-1-ylmethyl)phenyl]amino}-7-(4-fluoropiperidin-1-yl)pyrido[3,4-d]pyridazin-4-ol]
5 nM	COc1cc(N2CCNCC2)ccc1Nc1nc(Oc2cccc(Cl)c2Cl)cc2cn[nH]c(=O)c12 [Example 79, 7-(2,3-dichlorophenoxy)-5-{[2-methoxy-4-(piperazin-1-yl)phenyl]amino}pyrido[3,4-d]pyridazin-4(3H)-one]
55 nM	COc1cc2c(cc1Nc1cc(Cc3ccccc3Cl)nc3cnnc(O)c13)CNCC2 [Example 91, 2-(2-chlorobenzyl)-4-[(6-methoxy-1,2,3,4-tetrahydroisoquinolin-7-yl)amino]pyrido[2,3-d]pyridazin-5-ol]
33 nM	COc1cc(CN2CCN(C)CC2)ccc1Nc1cc(Cc2ccccc2Cl)nc2cn[nH]c(=O)c12 [Example 116, 2-(2-chlorobenzyl)-4-({2-methoxy-4-[(4-methylpiperazin-1-yl)methyl]phenyl}amino)pyrido[2,3-d]pyridazin-5(6H)-one]
1 nM	Cc1c(Nc2nc(Cc3c(Cl)cccc3Cl)cc3cn[nH]c(=O)c23)ccc(N2CCNCC2)c1C [Example 69, 7-(2,6-dichlorobenzyl)-5-{[2,3-dimethyl-4-(piperazin-1-yl)phenyl]amino}pyrido[3,4-d]pyridazin-4(3H)-one]
4 nM	COc1cc(N2CCNCC2)ccc1Nc1nc(Oc2cccc(C)c2C)cc2cnnc(O)c12 [Example 82, 7-(2,3-dimethylphenoxy)-5-{[2-methoxy-4-(piperazin-1-yl)phenyl]amino}pyrido[3,4-d]pyridazin-4-ol]
1 nM	Cc1cc(Nc2nc(Cc3c(Cl)cccc3Cl)cc3cn[nH]c(=O)c23)c(F)cc1N1CCNCC1 [Example 73, 7-(2,6-dichlorobenzyl)-5-{[2-fluoro-5-methyl-4-(piperazin-1-yl)phenyl]amino}pyrido[3,4-d]pyridazin-4(3H)-one]
